Experimental data reported in patent US20050004007A1, “Promotion of adoptosis in cancer cells by co-administration of cyclin dependent kinase inhibitiors and cellular differentiation agents” (priority 2000, published 2005).

How the values were obtained:
Format in all cases: cell-based, human
[1] = test system: U937 cells; test: CD11b surface differentiation marker expression (flow cytometry); conditions: 1 mM SB, 100 nM FP, 48 h
Experimental: Differentiation studies. Expression of the monocytic differentiation marker, CD11b, was monitored by direct immunofluorescence staining and flow cytometric analysis as previously described [Freemerman et al. 1997]. Following drug treatment, suspension and adherent cells were enumerated by a Coulter Counter and 2×10^6 cells were pelleted by centrifugation. The supernatant was aspirated and the cells were resuspended in 300 μl of ice-cold PBS. Two 100 μl aliquots from each sample were then combined with either phycoerythrin-1 (10 μl) or the IgG control. Samples were incubated for 20 min at 4° C. and diluted in PBS (1 ml). Sample data were collected using a Becton Dickinson FACScan flow cytometer and analyzed with Verity Winlist Software (Verity; Topsham, Me.). […] U937 cells were transfected with a full-length p21^WAF1/CIP1 promoter (base pairs 1-2326) as described by Chinery et al. [Chinery et al. 1997] utilizing electroporation (Eppendorf Multiporator, 620V, 60 μs) in hypoosmolar buffer. In each experiment, pSV-βgal (Promega), containing the β-galactosidase gene under the control of the constitutively active SV40 promoter and enhancer, was co-transfected with the luciferase reporter at a ratio of 1:5 (w/w) to normalize for transfection efficiency. The cells were incubated overnight in complete media and treated with 10 nM PMA, 100 nM FP, or 10 nM PMA/100 nM FP for 3 or 6 h. At indicated times, cells were washed in serum-free media, resuspended in 0.25M Tris-HCl pH 7.8, lysed by rapid freeze-thaw, centrifuged and the supernatant frozen at −70° C. Lysates (20 μL) were mixed with luciferase assay reagent (100 μL) and monitored for 20 seconds in a luminometer (Monolight 2010). For β-galactosidase activity, lysates (50 μL) were mixed in triplicate with an equal volume of […] assay buffer (2×) in a 96-well plate and incubated overnight. The reaction was terminated by addition of NaCO3 and absorbance was measured at 405 nm in a Vmax plate reader (Molecular Devices). Activity was determined by comparison to a standard curve. […]

[2] = test system: XIAP; test: Western analysis of XIAP in U937 cells; conditions: FP 100 nM, SB 1 mM
Experimental: (§1) Alternatively, whole cell-pellets were washed twice in PBS, resuspended in PBS, and lysed by the addition of I volume of loading buffer. Lysates were boiled for 10 min, centrifuged at 12,800 g for 5 min and quantified using Coomassie protein assay reagent (Pierce, Rockfold, Ill.). 25 μg of total proteins per point were separated by SDS-PAGE and electro-blotted to nitrocellulose. The blots were blocked in 5% non-fat milk in PBS-T and probed for 1 h with the appropriate dilution of primary antibody. Blots were washed 3×10 min in PBS-T and then incubated with a 1:2000 dilution of peroxidase-conjugated secondary antibody for 1 h at room temperature. Blots were again washed 3×10 min in PBS-T and then developed by enhanced chemiluminesence. Where indicated, blots were stripped and re-probed with antibodies directed against actin. […]

[3] = test system: U937 cells; test: cytochrome c release into the cytosol; conditions: FP 100 nM; for cytochrome c release: SB 1 mM, alone from 1 hr, both drugs ≧6 hr
Experimental: Cytochrome c release. The assay for cytochrome c release was performed as previously described by Single et al. [1998] with modifications. At designated times following drug treatment, 4×10^6 cells were washed with PBS and resuspended in 50 μl of assay buffer (75 mM NaCl, 1 mM NaH2P0^4, 8 mM Na2HP0^4, 1 mM EDTA, 250 mM sucrose) containing digitonin (700 μg/ml). Three minutes following addition of digitonin assay buffer, cells were pelleted by centrifugation. The supernatants were transferred to tubes containing 2× Laemmli buffer (50 μl) and boiled for 5 minutes. Proteins were separated by SDS-PAGE as described above.
Analysis of cytosolic cytochrome c. A previously described technique was employed.^32 After treatment, cells (5×10^7/condition) were harvested by centrifugation at 600 g for 10 min at 4° C. The S-100, or cytosolic fraction, was prepared as described with minor modifications. Cell pellets were washed once with ice-cold phosphate-buffered saline and resuspended in five volumes of buffer A (20 mM Hepes-KOH, pH 7.5, 10 mM KCl, 1.5 mM MgCl2, 1 mM sodium EDTA, 1 mM sodium EGTA, 1 mM dithiothreitol, 0.1 mM phenylmethlysufonyl fluoride, and 250 mM sucrose; all Sigma. After chilling for 30 min on ice, the cells were disrupted by 15 strokes of a Potter-Elvehjem (PTFE-pestle) homogenizer. The homogenate was then centrifuged twice to remove unbroken cells and nuclei (3000 g for 10 min at 4° C.). The resulting supernatant was further centrifuged at 100,000 g for 1 h at 4° C., and the supernatants, designated as S-100 fractions, were immediately subjected to Western analysis as described above. For each condition, 25 μg of the S-100 fraction was loaded on the gel, and probed with the corresponding antibody.

[4] = test system: cdk2 and cdk4; test: Western analysis of cdk2/4-phosphorylated pRb in U937 cells; conditions: FP 100 nM, SB 1 mM
Experimental: as §1

[5] = test system: histones H3 and H4; test: acetylated histone Western (HDAC assay) in U937 cells; conditions: 1 mM SB, 100 nM FP
Experimental: Histone Deacetylase (HDAC) Assay. Acid extraction of proteins from treated cells and detection of acetylated histones H3 and H4 by Western blot analysis was performed per the manufacturer's instructions (Upstate Biotechnology). 10 μg of extract was loaded per lane and separated on pre-cast 4-20% Biorad Gradient Gels.

Structure (SMILES)	expression of the differentiation marker CD11b [1]	levels of XIAP [2]	release of cytochrome c into the cytosol ([3]; PMA 10 nM, 6 h)	cytochrome c release [3]	cdk2/4 activities (cdk2/4-phosphorylated pRb) [4]	acetylation of histones H3 and H4 [5]
CN1CC[C@H](c2c(O)cc(O)c3c(=O)cc(-c4ccccc4Cl)oc23)[C@H](O)C1 [FP, Flavopiridol]	not accompanied by an increase in CD11b expression	modest decreases	some effect	increased modestly	moderate inhibition	
CCCC(=O)[O-].[Na+] [SB, sodium butyrate]	increased expression of the differentiation marker CD11b			increased modestly		Acetylation of H3 and H4 was observed
